The numbers were not newly measured in patent US9006268B2, “Prolylcarboxypeptidase inhibitors” (Merck Sharp & Dohme Corp., priority 2010, dated 2015), which cites them from elsewhere.

For data set [1] the following is noted: literature studies of weight loss medications.
The subject of the next data set is rats. The note with it: intracerebroventricular administration to rats.
Data set [2] relates to obese, leptin deficient mice. To be noted: systemic administration to obese.

With `CCCCCCCCCCC[C@@H](C[C@@H]1OC(=O)[C@H]1CCCCCC)OC(=O)[C@H](CC(C)C)NC=O` [orlistat], the “weight loss of body weight for drug compared to placebo” value (shortened to “weight loss … compared to placebo”) in data set [1] is 5%-10%.
For the compound `CC(C)CC(N(C)C)C1(c2ccc(Cl)cc2)CCC1` (stereo not drawn) [sibutramine], in data set [1], the “weight loss … compared to placebo” value was 5%-10%.
For `CC(C)(N)Cc1ccccc1` [phentermine], the “weight loss … compared to placebo” value in data set [1] was 5%-10%.
For the compound t-butyl carbamate-prolyl prolinal [BPP], the overnight food intake result (in the data set on rats; in data set [2]) was “suppression of overnight food intake” in each case.
Regarding `CCN[C@@H](C)Cc1cccc(C(F)(F)F)c1` [dexfenfluramine], the “weight loss … compared to placebo” value in data set [1] is 5%-10%.
